From patent US10285979B2, “Breast cancer therapeutic agent containing 5′-hydroxy-5-nitro-indirubin-3′-oxime as active ingredient” (ANYGEN CO., LTD., priority 2016, dated 2019)

What was measured:
786-0 = conditions: 10 μM; renal cell carcinoma cell line 786-0
Excerpt: (§1) If the growth percent is 0%, it means that no further growth of cancer cells occurs, which is an ideal case.

A498 = conditions: 10 μM; renal cell carcinoma cell line A498
Excerpt: as §1

A549/ATCC = conditions: 10 μM; non-small cell lung cancer cell line A549/ATCC
Excerpt: as §1

ACHN = conditions: 10 μM; renal cell carcinoma cell line ACHN
Excerpt: as §1

CAKI-1 = conditions: 10 μM; renal cell carcinoma cell line CAKI-1
Excerpt: as §1

COLO 205 = conditions: 10 μM; colorectal cancer cell line COLO 205
Excerpt: as §1

DU-145 = conditions: 10 μM; prostate cancer cell line DU-145
Excerpt: as §1

HCC-2998 = conditions: 10 μM; colorectal cancer cell line HCC-2998
Excerpt: as §1

HCT-116 = conditions: 10 μM; colorectal cancer cell line HCT-116
Excerpt: as §1

HCT-15 = conditions: 10 μM; colorectal cancer cell line HCT-15
Excerpt: as §1

HS 578T = conditions: 10 μM; breast cancer cell line HS 578T
Excerpt: as §1

MALME-3M = conditions: 10 μM; malignant melanoma cell line MALME-3M
Excerpt: as §1

MDA-MB-435 = conditions: 10 μM; malignant melanoma cell line MDA-MB-435
Excerpt: as §1

NCI-H23 = conditions: 10 μM; non-small cell lung cancer cell line NCI-H23
Excerpt: as §1

OVCAR-3 = conditions: 10 μM; ovarian cancer cell line OVCAR-3
Excerpt: as §1

PC-3 = conditions: 10 μM; prostate cancer cell line PC-3
Excerpt: as §1

SF-295 = conditions: 10 μM; CNS cancer cell line SF-295
Excerpt: as §1

SK-MEL-28 = conditions: 10 μM; malignant melanoma cell line SK-MEL-28
Excerpt: as §1

SK-OV-3 = conditions: 10 μM; ovarian cancer cell line SK-OV-3
Excerpt: as §1

SN12C = conditions: 10 μM; renal cell carcinoma cell line SN12C
Excerpt: as §1

SNB-19 = conditions: 10 μM; CNS cancer cell line SNB-19
Excerpt: as §1

SR = conditions: 10 μM; leukemia cell line SR
Excerpt: as §1

SW-620 = conditions: 10 μM; colorectal cancer cell line SW-620
Excerpt: as §1

T-47D = conditions: 10 μM; breast cancer cell line T-47D
Excerpt: as §1

UO-31 = conditions: 10 μM; renal cell carcinoma cell line UO-31
Excerpt: as §1

Molecule `O=C1Nc2ccc([N+](=O)[O-])cc2C1=C1Nc2ccc(O)cc2C1=NO` [AGM-130, (2′Z 3′E)-5′-hydroxy-5-nitro indirubin oxime] has a Growth percent (786-0) of 4.21%, a Growth percent (A498) of −24.52% and a Growth percent (A549/ATCC) of 10.64%. The Growth percent (ACHN) was −25.79%, the Growth percent (CAKI-1) was −14.28% and the Growth percent (COLO 205) was 65.80%. It also gave a Growth percent (DU-145) of 6.72%, a Growth percent (HCC-2998) of 8.93% and a Growth percent (HCT-116) of 2.29%. For the same molecule, the Growth percent (HCT-15) was 10.28%, the Growth percent (HS 578T) was 1.21% and the Growth percent (MALME-3M) was 11.73%. For the same molecule, the Growth percent (MDA-MB-435) was 9.35%, the Growth percent (NCI-H23) was 3.19% and the Growth percent (OVCAR-3) was 4.31%. For the same molecule, the Growth percent (PC-3) was 2.12%, the Growth percent (SF-295) was 20.93% and the Growth percent (SK-MEL-28) was −11.04%. The Growth percent (SK-OV-3) was −9.52%, the Growth percent (SN12C) was 23.68% and the Growth percent (SNB-19) was 17.47%. The Growth percent (SR) was 0.38%, the Growth percent (SW-620) was 3.18% and the Growth percent (T-47D) was 16.80%. For the same molecule, the Growth percent (UO-31) was −1.14%.
